We go through 15 compounds from article PMC3988658 (Pathogens and disease, 2014).

By IC50 is commonly meant the concentration that gives 50% inhibition. Read a low IC50 as higher potency.

Data set [1] deals with C. albicans tet-NRG1 strain filamentation. The data set is classed as cell-based, Candida albicans. The following applies: YPD plus DOX, dose response.
In data set [2] the test system is C. albicans wild-type strain SC5314 biofilm formation. Nature of the data set: microbe, parasite or virus in culture. The data set is classed as cell-based, Candida albicans. The following applies: for Inhibition of biofilm formation: NCI Natural set, dose response; for IC50: SC5314, 24 h.
The subject of a further data set is C. albicans. The following applies: cited from earlier work.
The nature of a further data set: in vitro. Conditions: human.
The test system of data set [3] is Human hepatocellular carcinoma (HepG2) cells.

Starred links: 1 amine or outer side, 2 acyl side, 3 side chain; linkers in the order of their positions; H or OH if unused. Positions of bridges follow the written chain, without caps; N, C: chain ends. Non-standard residues stand in square brackets, D forms with d. Residues, ends and D or L forms follow the SMILES beside them. *: point of attachment. Ileψ(thiazoline)Cys = CC[C@H](C)[C@H](N)C1=N[C@H](C(=O)*)CS1; X2 = CCC(=O)CC(O)C[C@@H](C)C[C@H](N[*:1])C(=O)[*:2]; Alaψ(CH2NMeCH2CH2OH) = C[C@@H](CN(C)CCO)N*; dOrn = NCCC[C@@H](N)C(=O)O; X1 = CCCCCCCCC(C)C(=O)*; Aib = CC(C)(N)C(=O)O

In the case of Nanaomycin [Compound 3], the “Inhibition of filamentation” value in data set [1] was “inhibited filamentation in a dose-response manner”.

As to `CC[C@H](C)[C@H](N)C1=N[C@H](C(=O)N[C@@H](CC(C)C)C(=O)N[C@H](CCC(=O)O)C(=O)N[C@H](C(=O)N[C@H]2CCCCNC(=O)[C@H](CC(N)=O)NC(=O)[C@@H](CC(=O)O)NC(=O)[C@H](Cc3c[nH]cn3)NC(=O)[C@@H](Cc3ccccc3)NC(=O)[C@H]([C@@H](C)CC)NC(=O)[C@@H](CCCN)NC2=O)[C@@H](C)CC)CS1` [Compound 4, Bacitracin] ({Ileψ(thiazoline)Cys}-L[dE]IK[dOrn]I[dF]H[dD]N; lactam 4-C; N-terminus assumed), in data set [2], the “Inhibition of biofilm formation” value is on record as “inhibited biofilm formation only” and 2130 nM corresponded to half-maximal inhibition (IC50).

For the compound `CO[C@H]1C[C@@H]2CC[C@@H](C)[C@@](O)(O2)C(=O)C(=O)N2CCCC[C@H]2C(=O)O[C@H]([C@H](C)C[C@@H]2CC[C@@H](O)[C@H](OC)C2)CC(=O)[C@H](C)/C=C(\C)[C@@H](O)[C@@H](OC)C(=O)[C@H](C)C[C@H](C)/C=C/C=C/C=C/1C` [Compound 5, Rapamune (rapamycin, sirolimus)], in the data set on C. albicans (most liquid hypha-inducing media, ref Bastidas, Heitman & Cardenas, 2009), the “Effect on the morphogenic transition” value is on record as “no effect on the morphogenic transition”. This compound also showed an IC50 in data set [2] (Candida albicans) of 514 nM. In addition, the “Inhibition of filamentation” value in data set [1] is recorded as “inhibited filamentation in a dose-response manner”.

For the compound `COc1ccc(C[C@H]2NC[C@H](O)[C@H]2OC(C)=O)cc1` [Compound 2, Anisomycin], in data set [2], the “Inhibition of biofilm formation” value is “inhibited biofilm formation only”.

Turning to `N#Cc1cn([C@@H]2O[C@H](CO)[C@@H](O)[C@H]2O)c2ncnc(N)c12` [Compound 23, Vengicide (Unamycin B, Toyocamycin)], 1040 nM corresponded to half-maximal inhibition in data set [2] (Candida albicans) (IC50). This compound also gave a CC50 in the data set “in vitro” of less than 1560 nM.

In the case of `COc1cc2cc(C(=O)N3CC(COS(C)(=O)=O)c4ccc(O)cc43)[nH]c2c(OC)c1OC` (stereo not drawn) [Compound 27, 6-Hydroxy-3-((methanesulfonyloxy) Methyl)-1-((5,6,7-trimethoxyindol-2-yl)carbonyl)indoline], half-maximal inhibition in data set [2] (Candida albicans) (IC50) required 495 nM. For the same compound, the CC50 in “in vitro” was less than 1560 nM.

In turn, `CCCCCCCCCCCCCCC[C@@H](O)C[N+](C)(C)CCO` [Compound 21, 2-hydroxyethyl-[(2R)-2-hydroxyheptadecyl]-dimethylazanium;iodide] gave a CC50 in data set [3] of 10000 nM.

Consider `CC(C)[C@@H]1NC(=O)[C@H](C)OC(=O)[C@@H](C(C)C)NC(=O)[C@@H](C(C)C)OC(=O)[C@H](C(C)C)NC(=O)[C@H](C)OC(=O)[C@@H](C(C)C)NC(=O)[C@@H](C(C)C)OC(=O)[C@H](C(C)C)NC(=O)[C@H](C)OC(=O)[C@@H](C(C)C)NC(=O)[C@@H](C(C)C)OC1=O` [Compound 6, Valinomycin], for which the “Inhibition of hyphal growth” value in the data set on C. albicans (C. albicans, ref Watanabe, Azuma, Igarashi & Ooshima, 2005) is “inhibit hyphal growth”. The “Inhibition of biofilm formation” value in data set [2] is reported as “inhibited biofilm formation only”. In addition, the CC50 in the data set “in vitro” was determined as 2870 nM.

With `CC1OC(CC(=O)O)Cc2c(O)c3c(c(O)c21)C(=O)C=C(C1=CC(=O)c2c(O)c4c(c(O)c2C1=O)CC(CC(=O)O)OC4C)C3=O` (stereo not drawn) [Compound 13, 2-[7-[3-(carboxymethyl)-5,10-dihydroxy-1-methyl-6,9-dioxo-3,4-dihydro-1H-benzo[g]isochromen-7-yl]-5,10-dihydroxy-1-methyl-6,9-dioxo-3,4-dihydro-1H-benzo[g]isochromen-3-yl]acetic acid], in data set [2] (Candida albicans), the IC50 came out at 3310 nM.

The compound `CCCCCCCCCCCCCCC(O)C[N+](C)(CCO)CCO` (stereo not drawn) [Compound 29, Hexadecanaminium, 2-hydroxy-N,N-bis(2-hydroxyethyl)-N-methyl-, chloride] came in with a CC50 in data set [3] of 13900 nM.

For `CC(NCCN(C)C)C1CCC2C3CCc4cc(O)ccc4C3CCC12C` (stereo not drawn) [Compound 8, 17-[1-[2-(dimethylamino)ethylamino]ethyl]-13-methyl-6,7,8,9,11,12,14,15, 16,17-decahydrocyclopenta[a]phenanthren-3-ol], the IC50 in data set [2] (Candida albicans) amounted to 9.7 nM. In “in vitro”, this compound came in with a CC50 at 24 h of 8080 nM.

`CCCCCCCCC(C)C(=O)N1CCC[C@H]1C(=O)N[C@@H](C[C@H](C)CC(O)CC(=O)CC)C(=O)N[C@@H](C)C(=O)NC(C)(C)C(=O)NC(C)(C)C(=O)N[C@H](C(=O)N[C@@H](C)C(=O)NC(C)(C)C(=O)NC(C)(C)C(=O)N[C@@H](C)CN(C)CCO)C(C)C` (stereo partly drawn) [Compound 19, Trichopolyn-B] (X1-P[X2]A[Aib][Aib]VA[Aib][Aib]-{Alaψ(CH2NMeCH2CH2OH)}; N-terminus and C-terminus assumed) registered an IC50 in data set [2] of 666 nM. The same compound showed a CC50 in “in vitro” of 2990 nM.

For the compound `CCN(CC)CCN1c2ccccc2Sc2ccc3ccccc3c21` [Compound 14, 2-benzo[a]phenothiazin-12-yl-N,N-diethylethanamine], the IC50 in data set [2] (Candida albicans) was determined as 3800 nM.

For the compound `CC(=O)O[C@@H]1C[C@H]2O[C@@H]3C=C(C)CC[C@]3(C)[C@]1(C)[C@]21CO1` [Compound 1, Trichoderonin], in data set [1], the “Inhibition of filamentation” value is on record as “inhibited filamentation in a dose-response manner”.

As for `CC[C@H](C)[C@H](N)C1=N[C@H](C(=O)N[C@@H](CC(C)C)C(=O)N[C@H](CCC(=O)O)C(=O)N[C@H](C(=O)N[C@H]2CCCCNC(=O)[C@H](CC(N)=O)NC(=O)[C@@H](CC(=O)O)NC(=O)[C@H](Cc3cnc[nH]3)NC(=O)[C@@H](Cc3ccccc3)NC(=O)[C@H]([C@@H](C)CC)NC(=O)[C@@H](CCCN)NC2=O)[C@@H](C)CC)CS1` [Compound 4, Bacitracin] ({Ileψ(thiazoline)Cys}-L[dE]IK[dOrn]I[dF]H[dD]N; lactam 4-C (inferred)), the CC50 at 24 hr in “in vitro” is greater than 100000 nM.
